These results are taken from patent US11066433B2, “Pentaaza macrocyclic ring complexes possessing oral bioavailability” (Galera Labs, LLC, priority 2015, dated 2021).

The nature of this data set: Oral bioavailability by intraduodenal (id) dosing of minipigs, oil formulations, versus iv parent. Format: in vivo, Gottingen minipig. The settings on record: for Mini-Pig BioA: id 10 mg/kg, 10% by weight formulation, vs iv 1 mg/kg parent, AUC0-24 h. The procedure:
Compounds were screened for oral bioavailability by injecting the formulated prodrugs directly into the duodenum (intraduodenal or id administration) of the minipig test subjects, thus bypassing the acidic environment of the stomach and thereby eliminating potentially misleading oral bioavailability results that could arise from alteration of the test article drug in the acid environment of the stomach.
The studies were conducted at Xenometrics LLC (Stillwell, Kans.) and the id bioavailability was determined using various axial ligand derivative complexes of GC4419, GC4444, GC4403 and GC4401.
Male Gottingen minipigs (4-5 mo old, 9-12 kg weight) were purchased from Marshall BioResources and housed at Xenometrics. […] The distal end was exteriorized with a reusable accessible hub (see surgical details below). During a recovery period of at least 2 weeks the minipigs were handled daily to acclimate them to the test procedures, i.e., id dosing and blood collections. For each experiment, each minipig received a test article drug dissolved or suspended in an excipient vehicle. […] All dosing experiments were conducted in fasted animals. Food was withdrawn from the minipigs 16 hours before dosing. The minipigs had ad libitum access to water. Dosed minipigs were allowed access to food 6 hour after dosing. The test article was administered at a dose of 10 mg/kg parent drug in 0.1 mL/kg vehicle (e.g., 1.5 mL in 15 kg minipig) as a bolus injection (˜1 minute) via the id cannula. The actual amount of total test article drug administered varied with the formula weight of the prodrug. An equal volume of excipient vehicle was used to flush the cannula after the test article was administered. Approximately 6 hours later, corn oil was used to flush the cannula. After approximately 24 hours post-dose, the catheter was flushed with sterile saline solution and capped. At the following time-points 0.25, 0.5, 1, 2, 4, 8, 24 and 48 hour post-injection, 2 mL blood samples were collected by cranial vena cava puncture (4 mL Sodium heparin Vacutainer, 20 g 1.5″ needle) after the skin surface was wiped with ethanol. The minipig was placed in a sling in a recumbent position without anesthesia for the collection of blood samples. The minipigs were never used more than once per 7 days for experimentation. The blood samples were kept on ice until processed for plasma. Blood samples were centrifuged at 1200×g for ten minutes at 4° C. and plasma samples were transferred to 96 well plate tubes, capped and stored at −20° C. until shipment on dry ice to the analytical laboratory used for measuring the concentration of drug in the plasma. The concentration of the parent manganese pentaaza macrocylic ring complex (independent of the composition of the axial ligands) was measured in plasma using a validated HPLC/MS/MS method that is linear between 50 ng/mL and 20,000 ng/mL.
Maisine 35-1 is chemically defined to be the monoglyceride glyceryl monolinoleate (NF) and was supplied by Gattefosse, SAINT-PRIEST Cedex, France. Labrasol (NF) is chemically defined to be caprylocaproyl polyoxyl-8 glycerides NF and was supplied by Gattefosse, SAINT-PRIEST Cedex, France. Labrafil M 1944 CS is chemically defined to be oleoyl polyoxyl-6 glycerides (NF), and is available from Gattefosse, SAINT-PRIEST Cedex, France. The dosing solutions were all prepared using a four place analytical balance by weighing all components of each formulation so that 10% by weight of each formulation contained the test article drug substance and 90% by weight of the oil used for that formulation.
The bioanalytical method which is used to quantitate the parent Mn(II) macrocyclic ring ligand structure in plasma utilizes HPLC with MS/MS detection and monitors the presence of the monocationic [monoformatoMn(pentaazamacrocycle)]+ complex. […]

In the case of “Manganese(II)bis-propionato[(4aS,13aS,17aS,21aS)-1,2,3,4,4a,5,6,12,13,13a,14,15,16,17,17a,18,19,20,21,21a-Eicosahydro-11,7-nitrilo-7H-dibenzo[b,h][1,4,7,10] tetraaza-cycloheptadecine-κN5, κN13, κN18, κN21, κN22]- [GC4711]”, the “Mini-Pig BioA” value reads like this: (base oil Capmul MCM) 27%; (base oil Labrafil M1944 CS) 23%; (base oil Labrafil M2125 CS) 44%; (base oil Maisine 35-1) 29%; (base oil Peceol) 29%.

On to “Manganese(II)bis-racemic-2-phenylpropionato[(4aS,13aS,17aS,21 aS)-1,2,3,4,4a,5,6,12,13,13a,14,15,16,17,17a,18,19,20,21,21a-Eicosahydro-11,7-nitrilo-7H-dibenzo[b,h][1,4,7,10] tetraazacycloheptadecine-κN5, κN13, κN18, κN21, κN22]- [GC4705]”, for which the “Mini-Pig BioA” value runs as follows: (base oil Capmul MCM) 23%; (base oil Peceol) 24%.

Consider “Manganese(II)bis-octanoato[(4aS,13aS,17aS,21aS)-1,2,3,4,4a,5,6,12,13,13a,14,15,16,17,17a,18,19,20,21,21a-Eicosahydro-11,7-nitrilo-7H-dibenzo[b,h][1,4,7,10] tetraazacycloheptadecine-κN5, κN13, κN18, κN21, κN22]- [GC4710]”, for which the “Mini-Pig BioA” value is, setting by setting: (base oil Capmul MCM) 13%; (base oil Labrafil M2125 CS) 21%; (base oil Maisine 35-1) 8%.

“Manganese(II)bis-racemic-phenylglycinato[6R-Methyl(4aR,13aR,17aR,21 aR)-1,2,3,4,4a,5,6,12,13,13a,14,15,16,17,17a,18,19,20,21,21a-Eicosahydro-11,7-nitrilo-7H-dibenzo[b,h][1,4,7,10] tetraazacycloheptadecine-κN5, κN13, κN18, κN21, κN22]- [GC4716]”: the “Mini-Pig BioA” value (base oil Capmul MCM) turned out to be 34%.

For “Manganese(II)bis-phenylglyoxaloto[(4aS,13aS,17aS,21aS)-1,2,3,4,4a,5,6,12,13,13a,14,15,16,17,17a,18,19,20,21,21a-Eicosahydro-11,7-nitrilo-7H-dibenzo[b,h][1,4,7,10]tetraazacyclohepta-decine-κN5, κN13, κN18, κN21, κN22]- [GC4719]”, the “Mini-Pig BioA” value (base oil Capmul MCM) was 25%, the “Mini-Pig BioA” value (base oil Maisine 35-1) is 31% and the “Mini-Pig BioA” value (base oil Peceol) was 28%.

“Manganese(II)bis-racemic-phenylglycinato[2S, 21 S-Dimethyl(4aR,13aR,17aR,21 aR)-1,2,3,4,4a,5,6,12,13,13a,14,15,16,17,17a,18,19,20,21,21a-Eicosahydro-11,7-nitrilo-7H-dibenzo[b,h][1,4,7,10] tetraazacycloheptadecine-κN5, κN13, κN18, κN21, κN22]- [GC4715]”: the “Mini-Pig BioA” value (base oil Capmul MCM) is 36%.

In the case of “Manganese(II)bis-dodecanoato[(4aS,13aS,17aS,21aS)-1,2,3,4,4a,5,6,12,13,13a,14,15,16,17,17a,18,19,20,21,21a-Eicosahydro-11,7-nitrilo-7H-dibenzo[b,h][1,4,7,10] tetraazacycloheptadecine-κN5, κN13, κN18, κN21, κN22]- [GC4708]”, for the setting “base oil Capmul MCM”, the “Mini-Pig BioA” value is given as 12%.

Regarding “Manganese(II)bis-phenylacetato[(4aS,13aS,17aS,21aS)-1,2,3,4,4a,5,6,12,13,13a,14,15,16,17,17a,18,19,20,21,21a-Eicosahydro-11,7-nitrilo-7H-dibenzo[b,h][1,4,7,10] tetraazacyclo-heptadecine-κN5, κN13, κN18, κN21, κN22]- [GC4718]”, the “Mini-Pig BioA” value by setting is: (base oil Capmul MCM) 32%; (base oil Maisine 35-1) 28%.

As for “Manganese(II)bis-Benzoato[(4aS,13aS,17aS,21aS)-1,2,3,4,4a,5,6,12,13,13a,14,15,16,17,17a,18,19,20,21,21a-Eicosahydro-11,7-nitrilo-7H-dibenzo[b,h][1,4,7,10] tetraazacycloheptadecine-κN5, κN13, κN18, κN21, κN22]- [GC4712]”, the “Mini-Pig BioA” value was found to be 24% (base oil Capmul MCM), 18% (base oil Maisine 35-1) and 29% (base oil Peceol).

As to “Manganese(II)bis-propionato[6R-Methyl(4aR,13aR,17aR,21 aR)-1,2,3,4,4a,5,6,12,13,13a,14,15,16,17,17a,18,19,20,21,21a-Eicosahydro-11,7-nitrilo-7H-dibenzo[b,h][1,4,7,10] tetraazacycloheptadecine-κN5, κN13, κN18, κN21, κN22]- [GC4747]”, the “Mini-Pig BioA” value (base oil Labrafil M2125 CS) came out at 20%.

For the substance “Manganese(II)bis-racemic-phenylglycinato[(4aR,13aR,17aR,21 aR)-1,2,3,4,4a,5,6,12,13,13a,14,15,16,17,17a,18,19,20,21,21a-Eicosahydro-11,7-nitrilo-7H-dibenzo[b,h][1,4,7,10] tetraazacycloheptadecine-κN5, κN13, κN18, κN21, κN22]- [GC4717]”, the “Mini-Pig BioA” value (base oil Capmul MCM) stood at 26%.

Turning to “Manganese(II)bis-L-Lactato[(4aS,13aS,17aS,21aS)-1,2,3,4,4a,5,6,12,13,13a,14,15,16,17,17a,18,19,20,21,21a-Eicosahydro-11,7-nitrilo-7H-dibenzo[b,h][1,4,7,10] tetraazacycloheptadecine-κN5, κN13, κN18, κN21, κN22]- [GC4714]”, under “base oil Capmul MCM”, the “Mini-Pig BioA” value is recorded as 36%.

For “Manganese(II)bis-rac-Mandelato[(4aS,13aS,17aS,21aS)-1,2,3,4,4a,5,6,12,13,13a,14,15,16,17,17a,18,19,20,21,21a-Eicosahydro-11,7-nitrilo-7H-dibenzo[b,h][1,4,7,10] tetraazacycloheptadecine-κN5, κN13, κN18, κN21, κN22]- [GC4706]”, under “base oil Capmul MCM”, the “Mini-Pig BioA” value is 28%.

Take “Manganese(II)bis-propionato[(4aR,13aR,17aR,21 aR)-1,2,3,4,4a,5,6,12,13,13a,14,15,16,17,17a,18,19,20,21,21a-Eicosahydro-11,7-nitrilo-7H-dibenzo[b,h][1,4,7,10] tetraazacycloheptadecine-κN5, κN13, κN18, κN21, κN22]- [GC4748]”: where the note is “base oil Labrafil M2125 CS”, the “Mini-Pig BioA” value stood at 22%.

As for “Manganese(II)bis-L-phenylglycinato[(4aS,13aS,17aS,21 aS)-1,2,3,4,4a,5,6,12,13,13a, 14,15,16,17,17a,18,19,20,21,21a-Eicosahydro-11,7-nitrilo-7H-dibenzo[b,h][1,4,7,10]tetraazacyclo-heptadecine-κN5, κN13, κN18, κN21, κN22]- [GC4702]”, the “Mini-Pig BioA” value was found to be 43% (base oil Capmul MCM), 25% (base oil Labrafil M2125 CS), 42% (base oil Miglyol 812 N) and 29% (base oil Peceol). For the same substance, the “oral bioavailability, comparison in words” value (id dosing of minipigs, various oils) was “much better absorbed”.

In the case of “Manganese(II)bis-acetato[(4aS,13aS,17aS,21aS)-1,2,3,4,4a,5,6,12,13,13a,14,15,16,17,17a,18,19,20,21,21a-Eicosahydro-11,7-nitrilo-7H-dibenzo[b,h][1,4,7,10] tetraazacycloheptadecine-κN5, κN13, κN18, κN21, κN22]- [GC4701]”, the “Mini-Pig BioA” value (base oil Capmul MCM) came out at 15%, the “Mini-Pig BioA” value (base oil Labrafil M2125 CS) is listed as 16%, the “Mini-Pig BioA” value (base oil Maisine 35-1) is 8% and the “Mini-Pig BioA” value (base oil Peceol) was found to be 11%.

As to “Manganese(II)bis-L-valinato[(4aS,13aS,17aS,21aS)-1,2,3,4,4a,5,6,12,13,13a,14,15,16,17,17a,18,19,20,21,21a-Eicosahydro-11,7-nitrilo-7H-dibenzo[b,h][1,4,7,10] tetraazacyclo-heptadecine-κN5, κN13, κN18, κN21, κN22]- [GC4746]”, the “Mini-Pig BioA” value (base oil Capmul MCM) is 13%.
